Experimental data taken from patent US9604932B2 (priority 2013, dated 2017).

Legend:
[1] = system: myocardial ischemia-reperfusion injury; experiment: Rat model of myocardial ischemia-reperfusion injury; type: in vivo, Sprague-Dawley rats; details: protocol only; 10, 30, 80 mg/kg IV
Protocol: In order to test the efficacy of R-107 in a myocardial ischemia reperfusion injury, male aged Sprague-Dawley rats are dosed with R-107 (0, 10, 30, 80 mg/kg IV) 10 minutes prior to the end of a 30 minutes period of ischemia produced by occlusion of the left anterior descending (LAD) coronary artery. Cardiac function is monitored by a Millar catheter for the determination of heart rate (HR), systolic and diastolic blood pressure (BP), left ventricular (LV) systolic BP, LV end-diastolic BP (LVEDP), ±dP/dt, pressure-volume (PV) loop, and tau (τ). 3 hours post-ischemia, blood and myocardium are analyzed for morphologic, histochemical, and bioanalytical injury. The area of necrosis, as a % of area at risk (AAR), and the extent of the no-reflow zone are quantified.

[2] = system: peripheral hypertension (HTN); experiment: Minipig model of peripheral hypertension; type: in vivo, minipigs; details: protocol only; enterically-coated oral capsule
Protocol: In order to test the efficacy of R-107 in peripheral hypertension (HTN), a series of 3 hemodynamic studies is carried out in conscious, instrumented, ambulatory, and telemetered minipigs (n=5) with HTN secondary to an endovascular-created, unilateral, renovascular stenosis. Minipigs are treated with R-107 administered as an enterically-coated oral capsule.
In Series A, the pharmacokinetic profile and hemodynamic effect of a single administration of R-107 (3, 10, 20, 30 mg/kg) is correlated with a one-week washout period between successive dose levels. Animals are monitored for 24 hours to collect continuous hemodynamic data and intermittent plasma concentrations of R-107 and its metabolites (0, 0.25, 0.5, 0.75, 1, 2, 4, 6, 8, 12, 16, 20, and 24 hours). In Series B, the most promising 2 doses of R-107 from Series A are evaluated by carrying out a repeat-dose study of R-107 administered every 6 hours (q6h) for a period of 3 days. The hemodynamic effects of R-107 are correlated with plasma peak and trough concentrations of R-107 and its metabolites obtained q6h. In Series C, the emergence of tachyphylaxis to R-107 in a 2 week repeat-dose study (q6h) is evaluated utilizing the optimal dose determined in Series B, wherein hemodynamics are correlated with plasma pharmacokinetic determinations as in Series B.

[3] = Conversion of prodrug upon exposure to plasma, biological solutions and tissues; type: in vitro ADME; details: stable oil until exposure to plasma
[4] = system: renal ischemia-reperfusion injury; experiment: Rat model of renal ischemia-reperfusion injury; type: in vivo, Sprague-Dawley rats; details: protocol only; 80 mg/kg IV infusion
[5] = system: retinal ischemia-reperfusion injury; experiment: Murine model of retinal ischemia-reperfusion injury; type: in vivo, C57BL/6 mice; details: protocol only; 30 mg/kg/day IP BID
Protocol: In this study, the efficacy of R-107 in subacute murine model of retinal ischemia-reperfusion injury is tested, using male C57BL/6 mice (n=10 per group). Briefly, the anterior chamber of the right eye is cannulated with a 30 gauge needle attached to a line infusing sterile saline. The intraocular pressure (IOP) is raised to 110 mmHg by elevating the saline reservoir. The left eye undergoes sham surgery, in which the needle is inserted into the anterior chamber without elevating IOP. R-107 is injected (30 mg/kg/day IP BID) commencing directly before reperfusion. 2 vehicle controls (normal saline and HPCD) is compared to drug therapy. Treatments are repeated twice daily thereafter until sacrifice. The outcome of these pharmacologic studies is quantitatively assessed by using terminal deoxynucleotidyl transferase dUTP nick end labeling (TUNEL) to measure retinal cell death (after 3 days), confocal imaging to quantify survival of ganglion cell layer neurons (after 7 days), and electroretinogram recordings to measure retinal neuronal function (after 21 days).

[6] = Incubation of R-107 in rat plasma, relative concentrations by HPLC; type: in vitro ADME; details: R-107 4 mM in rat plasma, 37° C.
Protocol: In an in vitro study, 2,2,5,5-tetramethyl-3-(nitrooxymethyl)pyrrolidin-1-yl acetate (R-107) was incubated in mouse or rat plasma at 37° C. at a concentration of 4 mM, and the relative concentrations of this compound as well as of its corresponding hydroxylamine, (1-hydroxy-2,2,5,5-tetramethylpyrrolidin-3-yl) methyl nitrate (R-105), and 3-nitratomethyl-2,2,5,5-tetramethylpyrrolidinyloxy (R-100), were measured by HPLC.

[7] = system: Pseudomonas aeruginosa (PSA)-induced septic pneumonia; experiment: Sheep model of septic pneumonia; type: in vivo, Merino sheep; details: protocol only; total 80 mg/kg BID IV
From the text: In this study, a model of sheep suffering from Pseudomonas aeruginosa (PSA)-induced septic pneumonia and consequent pulmonary dysfunction is used. Female Merino sheep are operatively instrumented for chronic study with Swan-Ganz®, i.e., pulmonary artery, and femoral artery catheters, and are randomly allocated to vehicle control or R-107 treatment group. Smoke inhalation injury (48 breaths of cotton smoke) is induced and 2.4×10^11 colony-forming units (CFU) of PSA are instilled in the lung via bronchoscope under general anesthesia. The animal in the treatment group are intravenously (IV) administered with a total of 80 mg/kg of R-107 BID. Ringer's lactate solution is titrated IV to maintain hematocrit (hct) at baseline±3%. Measurements are taken at baseline and every 3 hours during the 24 hours study period. Data are expressed as mean±SEM. Statistical analysis: two-way ANOVA and Bonferroni post hoc comparison. A p-value <0.05 is considered as statistically significant.

CC(=O)ON1C(C)(C)CC(CO[N+](=O)[O-])C1(C)C (stereo not drawn) [R-107, 2,2,5,5-tetramethyl-3-(nitrooxymethyl)pyrrolidin-1-yl acetate]
Efficacy in rat model of myocardial ischemia-reperfusion injury [1]: Effective
Efficacy in minipig model of peripheral hypertension [2]: Effective
Stability / conversion upon exposure to plasma [3]: readily converted to its corresponding 1-pyrrolidinyloxy derivative R-100
Efficacy in rat model of renal ischemia-reperfusion injury [4]: Effective
Efficacy in murine model of retinal ischemia-reperfusion injury [5]: Effective
Relative concentration of R-107 ([6]; 0.1 hrs): 246
Relative concentration of R-107 ([6]; 1.5 hrs): 18
Relative concentration of R-107 ([6]; 20 hrs): 0
Efficacy in sheep model of septic pneumonia [7]: Effective
